Source: patent US20190269705A1, “METHODS AND MATERIALS FOR TREATING GRAFT VERSUS HOST DISEASE” (Regents of the University of Minnesota, priority 2017, published 2019)
“Also recorded” adds a separate entry of the source.

Legend:
[1] = system: stimulated T cells; assay: Oxygen Consumption Rate (Seahorse) of stimulated CD4 T cells; format: cell-based, mouse; conditions: CD4 cells stimulated on CD3/CD28; 1 μM CB839, 5 μM UK5099 injected separately or in combination
Method: (§1) Experiments were carried out on Agilent Seahorse XF96 bioanalyzer (Agilent). Briefly, wild type CD4+ cells were isolated as previous and activated for 3 days on CD3/CD28 as previously described, or skewed to Th1 and Th17 subsets as described above. T cells were spun onto XF96 Cell-Tak (BD Bioscience, Cat #: 354240) coated plates and rested in Seahorse XF RPMI 1640 media supplemented with glutamine, sodium pyruvate, and glucose. For immediate metabolic response, CB839 and UK5099 were injected separately or in combination, and OCR and ECAR measured.
(§2) Experiments were carried out on Agilent Seahorse XF96 bioanalyzer (Agilent). Briefly, wild type CD4+ cells were isolated as previous and activated for 3 days on αCD3/CD28 coated plates as previously described, or skewed to Th1 and Th17 subsets as described above. T cells were isolated and spun onto XF96 Cell-Tak (BD Bioscience, Cat #: 354240) coated plates and rested in Seahorse XF RPMI 1640 media supplemented with glutamine, sodium pyruvate, and glucose. For immediate metabolic response, 1 μM CB839 and 5 μM UK5099 (Cat #: PZ0160-5MG) were injected separately or in combination, and OCR and ECAR measured. For activation response, 1 uM CB839 was injected into IL-7 maintained naïve CD4+ T cells in seahorse medium and allowed to incubate for 20 minutes, followed by soluble αCD3/CD28 injection.

[2] = system: Th1 cells; assay: 3H-2-deoxyglucose uptake and ECAR, Th1; format: cell-based, mouse
Method: Glucose uptake assays were performed as described elsewhere (see, e.g., Macintyre et al., 2014 Cell Metab. 20(1):61-72). Naïve CD4+ T cells were differentiated into Th1 and Th17 cells, in triplicate, in the presence or absence of CB839 over 5 days and spun down after reisolation using CD4 kit as previously described. Cells were washed 2× in PBS, counted, then rested in 1 mL Kreb's Ringers HEPES (KRH) for 10 minutes. Cells were spun and resuspended to 5×10^5 cells/50 uL KRH for glucose uptake assay. Briefly, cells were […]. Cells incubated for 10 minutes at 37° C. Immediately after incubation, reaction was quenched with 200 μM phloretin (Calbiochem, Cat #: 524488). Cells were spun, washed, and then resuspended in scint fluid for counting on Beckman-Coulter scintillation counter. Pathway analysis of altered metabolites was performed using Metaboanalyst 3.0 (metaboanalyst. ca/faces/home.xhtml).
as §1
Glucose uptake assays were performed as previously described (Macintyre et al.,2014). Naïve CD4+ T cells were differentiated into Th1 and Th17 cells, in triplicate, in the presence or absence of CB839 over five days and spun down after reisolation using CD4 kit as previously described. At day 3 and 5, cells were removed, washed twice in PBS, counted, then rested in 1 mL Kreb's Ringers HEPES (KRH) for at least 10 minutes. Cells were spun and resuspended to 5×10^5 cells/50 μL KRH for glucose uptake assay. Briefly, 3H-2-deoxyglucose was suspended in KRH bubble layered in oil, and cells were added to this bubble. Cells were incubated for 10 minutes at 37° C. Immediately after incubation, reaction was quenched with 200 μM phloretin (Calbiochem, Cat #: 524488). Cells were spun, washed, and then resuspended in scintilation fluid for counting on Beckman-Coulter scintillation counter (3H, 1 min/sample read).
as §2

[3] = system: stimulated CD4+ T cells; assay: 13C-glucose tracing of stimulated CD4 T cells (LC-HRMS); format: cell-based, mouse; conditions: 1 μM CB839, 13C-glucose, 24 hours
Method: ^13C-Glucose Activation: CD4 cells were activated on 5 μg/mL αCD3/CD28 for 3 days. At day 3, cells were pooled, washed 3× in PBS, and re-stimulated in presence of 1 μM CB839 or Vehicle (DMSO) and 11 mM ^13C glucose (Cambridge Isotope Labs, Cat #: CLM-1396-1). Cells were incubated for 24 hours at 37° C., then scraped and combined in triplicate. Cells were rinsed with 0.9% saline and metabolites were extracted in methanol. Metabolites measured by LC-High-Resolution Mass Spectrometer (LC-HRMS) using a Q-exactive machine. The time-dependent glucose labeling pattern was modeled as with the following equation: […]
^13C Tracing. To measure 13C-Glucose tracing in T cell activation, CD4 cells were stimulated on 5 μg/mL anti-CD3/CD28 for 3 days. At day 3, cells were pooled, washed 3× in PBS, and re-stimulated in presence of 1 uM CB839 or Vehicle (DMSO) and 11 mM 13C glucose (Cambridge Isotope Labs, Cat #: CLM-1396-1). Cells were incubated for 24 hours at 37 °C, then scraped and combined in triplicate. Cells were rinsed with 0.9% saline and metabolites were extracted in methanol. Metabolites measured by LC High-Resolution Mass Spectrometer (LC-HRMS) using a Q-Exactive machine as previously described(Liberti et al., 2017). The time-dependent glucose labeling pattern was modeled as with the following equation: […]

[4] = system: Th17 cells; assay: Nutrient uptake and secretion by NMR; format: cell-based, mouse
[5] = system: CD8 T cells; assay: CD8 T cells activated on αCD3/CD28 + IL2, flow cytometry
[6] = Th1, day 5, listed as GLS inhibitor
[7] = CD8 T cells, five days stimulation

Compound: O=C(Cc1cccc(OC(F)(F)F)c1)Nc1ccc(CCCCc2nnc(NC(=O)Cc3ccccn3)s2)nn1 [CB839]
- oxygen consumption (T cell respiration) [1]: neither UK5099 nor CB839 were sufficient on their own to reduce T cell respiration; also recorded: neither UK5099 nor CB839 were sufficient to reduce T cell respiration alone
- glucose uptake ([2]; Th1, day 5): increased
- media acidification (ECAR, glycolytic flux) ([2]; Th1, day 5): increased
- glucose uptake [2, 6]: increased levels of glucose uptake and glycolytic flux
- media acidification (ECAR, glycolytic flux) [2, 6]: increased levels of glucose uptake and glycolytic flux
- glucose uptake ([2]; Th1, day three): reduced
- N-carbamoyl-aspartate [3]: decreased
- TCA intermediates fractional labeling with glucose-derived 13C [3]: increased fractional labeling
- TCA intermediates overall abundance [3]: reduced in overall abundance
- aspartate levels [3]: decreased significantly
- glucose-derived 13C in glutamate and aspartate [3]: increased in both glutamate and aspartate
- glutamate [3]: decreased glutamate
- glycine abundance [3]: unchanged
- glycolytic intermediates abundance [3]: more abundant
- intracellular glutamine [3]: increased intracellular glutamine
- lactate levels and 13C-labeling [3]: unchanged
- pyruvate abundance [3]: decreased
- serine and alanine abundance [3]: also decreased
- glutamine uptake and glutamate, pyruvate, and lactate secretion [4]: reduced upon GLS inhibition
- Granzyme B ([5]; CD8 T cells, 4-5 days stimulation): increased levels of Granzyme B
- Eomes [5, 7]: increased levels
- Perforin [5, 7]: increased
- Tbet [5, 7]: increased levels
- markers of proliferation [5, 7]: increased levels
- portion of CD8 T cells expressing inhibitory receptors Lag3 and PD-1 [5, 7]: increased
- phospho-S6 ([5]; CTL in the presence of IL2): enhanced phospho-S6
